Experimental data from patent US20090022803A1, “Oral Formulations For Delivery of Catecholic Butanes Including Ndga Compounds” (priority 2005, published 2009).
Like-named read-outs stand apart in the source and are kept apart here.

Assay type: physicochemical
Procedure: A 10 mL solution of M4N at a concentration of about 10 mg/mL in 40% BP-β-CD was made as follows. About 10 mL of the 40% HP-β-CD solution were added to a glass beaker containing a stir bar. The beaker was placed on a magnetic plate and the stir bar was set to stir at medium speed. About […] of M4N were slowly added to the 40% HP-β-CD in the center of the beaker with the aid of a spatula. The M4N/40% HP-β-CD mixture was stirred for 2 hr or until all M4N was uniformly suspended without any clumps being present. The M4N/40% HP-β-CD mixture was optionally heated at 80° C. for about 30 min. (or longer if a larger volume of solution was desired, for example, 1 hr at 80° C. for 100 mL of the M4N/HP-β-CD mixture), or longer as needed to ensure complete dissolution of M4N. […] The final M4N/40% HP-β-CD solution was stored at room temperature and was kept protected from light. This process may be scaled up or down to obtain the requisite volume or concentration of M4N. Formulations containing M4N in other cyclodextrin solutions may be similarly made, such as, for example, by substituting HP-β-CD in the process described above with other cyclodextrins. […]
A 10 mL solution of M4N at a concentration of about 10 mg/mL in 50% HP-β-CD/0.5% HPMC was made as follows. About 10 mL of the 50% HP-β-CD/0.5% HPMC solution were added to a glass beaker containing a stir bar. The beaker was placed on a magnetic plate and the stir bar was set to stir at medium speed. About 100 mg of M4N were slowly added to the 50% HP-β-CD/0.5% HPMC in the center of the beaker with the aid of a spatula. The M4N/50% HP-β-CD/0.5% HPMC mixture was stirred for 24 hr or until all M4N was uniformly suspended without any clumps being present. The M4N/50% HP-β-CD/0.5% HPMC mixture was heated at about 90° C. for about 30 min. (or longer if a larger volume of solution was desired, for example, 1 hr at 90° C. for 500 mL of the M4N/50% HP-β-CD/0.5% HPMC mixture), or longer as needed to ensure complete dissolution of M4N. […] The final M4N/50% HP-β-CD/0.5% HPMC solution was stored at room temperature and was kept protected from light.
A 10 mL solution of M4N at a concentration of about 20 mg/mL in 5% EC (w/v) (the “EC formulation”) was made as follows. About 10 mL of 5% EC formulation, made as described above, were added to a glass beaker containing a stir bar. The beaker was placed on a magnetic plate and the stir bar was set to stir at medium speed, and covered with a round Teflon® cover. About 200 mg of M4N were slowly added to the 5% EC formulation in the center of the beaker with the aid of a spatula to prevent M4N from sticking to the beaker wall. The M4N/EC mixture was stirred for 2 hr or until all M4N had dissolved or was uniformly suspended without any clumps being present. The M4N/EC mixture was heated at about 60° C. for about 30 min. (or longer if a larger volume of solution was desired, for example, 1 hr at 60° C. for 500 mL of the M4N/EC mixture), or longer as needed to ensure complete dissolution of M4N. […] The final M4N/EC solution was stored at room temperature and was kept protected from light.
A 10 mL solution of M4N at a concentration of about 50 mg/mL in sesame oil was made as follows. About 10 mL of sesame oil were added to a glass beaker containing a stir bar. The beaker was placed on a magnetic plate and the stir bar was set to stir at medium speed. About 500 mg of M4N were slowly added to the sesame oil in the center of the beaker with the aid of a spatula to prevent M4N from sticking to the beaker wall. The M4N/sesame oil mixture was stirred for about 2 hr or until all M4N had dissolved or was uniformly suspended without any clump being present. The M4N/sesame oil mixture was heated at about 60° C. for about 30 min. (or longer if a larger volume of solution was desired, for example, 1 hr at 60° C. for 500 mL of the M4N/sesame oil mixture), or longer as need to ensure complete dissolution of M4N. […]

[1] = M4N 13.3 mg/mL in 27% HP-β-CD, 33% PEG 400 (v/v)
[2] = M4N 13.3 mg/mL in 27% HP-β-CD, 33% Tween ® 80 (v/v)
[3] = M4N 16.7 mg/mL in 13% HP-β-CD, 67% PEG 300 (v/v)
[4] = M4N 19.3 mg/mL in 10% HP-β-CD, 77% PEG 300 (v/v)
[5] = M4N 50 mg/mL in 50% HP-β-CD, 1.25% PVP (w/v)
For Dissolution After Cool Down in this document: key: N represents 'No'; Y represents 'Yes.'.

COc1ccc(C[C@@H](C)[C@@H](C)Cc2ccc(OC)c(OC)c2)cc1OC [Formulation M4N, meso-1,4-bis(3,4-dimethoxyphenyl)-2,3-dimethylbutane]
Dissolution After Cool Down [1]: Y
Dissolution After Rotation [1]: N
Dissolution After Heating at X° C. (M4N 13.3 mg/mL in 27% HP-β-CD, 33% PEG 400 (v/v), 60°): Y at 60°
Dissolution After Cool Down [2]: N
Dissolution After Rotation [2]: N
Dissolution After Heating at X° C. (M4N 13.3 mg/mL in 27% HP-β-CD, 33% Tween ® 80 (v/v), 60°): Y at 60°
Dissolution After Rotation (M4N 14 mg/mL in 40% HP-β-CD): N
Dissolution After Heating at X° C. (M4N 14 mg/mL in 40% HP-β-CD, 80°): N at 80°
Dissolution After Rotation (M4N 16 mg/mL in 40% HP-β-CD): N
Dissolution After Heating at X° C. (M4N 16 mg/mL in 40% HP-β-CD, 80°): N at 80°
Dissolution After Cool Down [3]: N
Dissolution After Rotation [3]: N
Dissolution After Heating at X° C. (M4N 16.7 mg/mL in 13% HP-β-CD, 67% PEG 300 (v/v), 60°): Y at 60°
Dissolution After Cool Down [4]: N
Dissolution After Rotation [4]: N
Dissolution After Heating at X° C. (M4N 19.3 mg/mL in 10% HP-β-CD, 77% PEG 300 (v/v), 60°): Y at 60°
Dissolution After Cool-Down (M4N 20 mg/mL in 5% EC in EtOH): Y
Dissolution After Rotation (M4N 20 mg/mL in 5% EC in EtOH): N
Dissolution After Rotation (M4N 20 mg/mL in 30% HP-β-CD): N
Dissolution After Heating at X° C. (M4N 20 mg/mL in 30% HP-β-CD, 90°): N at 90°
Dissolution After Rotation (M4N 20 mg/mL in 40% HP-β-CD): N
Dissolution After Heating at X° C. (M4N 20 mg/mL in 40% HP-β-CD, 80°): N at 80°
Dissolution After Rotation (M4N 20 mg/mL in 50% HP-β-CD): N
Dissolution After Rotation (M4N 20 mg/mL in 50% HP-β-CD, 0.5% CMC): Suspension
Dissolution After Rotation (M4N 20 mg/mL in 50% HP-β-CD, 0.5% HPMC, other experiment, no heat): Suspension
Dissolution After Heating at X° C. (M4N 20 mg/mL in 50% HP-β-CD, 90°): N at 90°
Dissolution After Cool-Down (M4N 20 mg/mL in Corn Oil): Y
Dissolution After Cool-Down (M4N 20 mg/mL in Sesame Oil): Y
Dissolution After Cool-Down (M4N 24.3 mg/mL in 75% Sesame Oil, 9% Tween ® 20, 16% Glycerol): Y
Dissolution After Cool-Down (M4N 29 mg/mL in 89% Sesame Oil, 11% Tween ® 20): Y
Dissolution After Cool-Down (M4N 30 mg/mL in 5% EC in EtOH): N
Dissolution After Rotation (M4N 30 mg/mL in 5% EC in EtOH): N
Dissolution After Cool-Down (M4N 30 mg/mL in Olive Oil): N
Dissolution After Cool-Down (M4N 30 mg/mL in Sesame Oil): Y
Dissolution After Cool-Down (M4N 30 mg/mL in Soybean Oil): N
Dissolution After Cool-Down (M4N 40 mg/mL in 50% Peppermint Oil, 50% PEG 300): Y
Dissolution After Cool-Down (M4N 40 mg/mL in 50% Peppermint Oil, 50% PEG 400): Y
Dissolution After Cool-Down (M4N 40 mg/mL in 50% Peppermint Oil, 50% Sesame Oil): Y
Dissolution After Cool-Down (M4N 40 mg/mL in 50% Peppermint Oil, 50% Tween ® 20): Y
Dissolution After Cool-Down (M4N 40 mg/mL in 85% Sesame Oil, 15% Tween ® 20): N
Dissolution After Cool-Down (M4N 40 mg/mL in Corn Oil): Y
Dissolution After Cool-Down (M4N 40 mg/mL in Peppermint Oil): Y
Dissolution After Rotation (M4N 50 mg/mL in 2.3% HPMC): N
Dissolution After Cool-Down (M4N 50 mg/mL in 5% EC in EtOH): N
Dissolution After Rotation (M4N 50 mg/mL in 5% EC in EtOH): N
Dissolution After Rotation (M4N 50 mg/mL in 15% α-CD): N
Dissolution After Heating at X° C. (M4N 50 mg/mL in 15% α-CD, 90°): N at 90°
Dissolution After Rotation (M4N 50 mg/mL in 20% HP-β-CD in saline): N
Dissolution After Rotation (M4N 50 mg/mL in 30% HP-β-CD): N
Dissolution After Heating at X° C. (M4N 50 mg/mL in 30% HP-β-CD, 90°): N at 90°
Dissolution After Rotation (M4N 50 mg/mL in 40% HP-β-CD): N
Dissolution After Heating at X° C. (M4N 50 mg/mL in 40% HP-β-CD, 80°): N at 80°
Dissolution After Rotation (M4N 50 mg/mL in 50% HP-β-CD): N
Dissolution After Rotation (M4N 50 mg/mL in 50% HP-β-CD, 0.5% HPMC): N
Dissolution After Rotation (M4N 50 mg/mL in 50% HP-β-CD, 0.5% HPMC, other experiment, no heat): Suspension
Dissolution After Heating at X° C. [5]: N
Dissolution After Rotation [5]: N
Dissolution After Heating at X° C. (M4N 50 mg/mL in 50% HP-β-CD, 90°): N at 90°
Dissolution After Cool-Down (M4N 50 mg/mL in Camillia Oil): N
